Source: patent publication US11407736B2 (priority 2019, dated 2022)
Where two headings read alike, the source gives them in different places.

What was measured:
RIPK1 = RIPK1 (Homo sapiens (Human), UniProt Q13546); assay: RIPK1 ADP-Glo biochemical kinase assay
Method: The final reaction volume was 5.0ul.
Adding 5 μl of ADP-Glo™ terminated the reaction.

L929 cells = assay: L929 cell necroptosis assay (TNFa + zVAD, CellTiter-Glo); assay type: cell-based, murine; settings: Mus musculus
Procedure, shortened: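 Murine L929 cells, plated 18 h beforehand at 10K cells/well in RPMI 1640 with 10% FBS, were switched to medium containing 40 uM zVAD-fmk and given compound from 4-fold serial dilutions. Viability after 18 h of TNFa stimulation at 37° C was read by CellTiter-Glo luminescence.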

U937 cells = assay: U937 cell necroptosis assay (TNFa + zVAD, CellTiter-Glo); assay type: cell-based, human; settings: Homo sapiens
Procedure, shortened: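 Human U937 and murine L929 cells in RPMI 1640/10% FBS were pre-incubated 1 h at 37 °C with serially diluted compound plus zVAD-fmk (U937 plated with 60 uM, L929 medium with 40 uM), then stimulated with 2 ng/mL TNFa (final). Viability read by CellTiter-Glo luminescence after 18 h.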

[1] = read-out: RIPK1 ADP-Glo Kinase (IC50)
[2] = L929, L929 cells, TNFa + zVAD, read-out: L929-CTG-recovery, L929, TNFa + zVAD (IC50)
[3] = U-937, U937 cells, TNFa + zVAD, read-out: U937 Zvad TNF CTG Recovery, U937, TNFa + zVAD (IC50)
[4] = L929, read-out: L929-CTG-recovery, L929, TNFa + zVAD (IC50), L929 cells, TNFa + zVAD
[5] = U-937, read-out: U937 Zvad TNF CTG Recovery, U937, TNFa + zVAD (IC50), U937 cells, TNFa + zVAD

Sequence of RIPK1 (Q13546 whole entry, species assumed): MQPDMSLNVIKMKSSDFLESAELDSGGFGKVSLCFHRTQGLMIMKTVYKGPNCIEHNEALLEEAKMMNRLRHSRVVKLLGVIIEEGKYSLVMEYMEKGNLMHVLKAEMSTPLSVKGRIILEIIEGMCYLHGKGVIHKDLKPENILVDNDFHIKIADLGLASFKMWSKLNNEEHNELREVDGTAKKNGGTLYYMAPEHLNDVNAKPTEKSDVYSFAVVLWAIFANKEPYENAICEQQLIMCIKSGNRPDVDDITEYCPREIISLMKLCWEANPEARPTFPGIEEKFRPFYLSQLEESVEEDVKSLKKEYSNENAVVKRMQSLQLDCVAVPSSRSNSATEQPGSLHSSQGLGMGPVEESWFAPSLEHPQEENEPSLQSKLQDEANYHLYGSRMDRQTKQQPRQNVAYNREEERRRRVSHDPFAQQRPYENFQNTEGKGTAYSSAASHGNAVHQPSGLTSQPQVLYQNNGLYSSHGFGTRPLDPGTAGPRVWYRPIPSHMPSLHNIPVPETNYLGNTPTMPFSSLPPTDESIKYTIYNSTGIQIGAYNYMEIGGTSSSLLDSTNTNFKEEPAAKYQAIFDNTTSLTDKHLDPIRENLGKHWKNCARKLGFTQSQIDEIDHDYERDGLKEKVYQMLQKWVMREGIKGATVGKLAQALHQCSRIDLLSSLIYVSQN

| SMILES | IC50 (RIPK1; [1]) [nM] | IC50 (L929 cells; [2]) [nM] | IC50 (U937 cells; [3]) [nM] | IC50 (L929 cells; [4]) [nM] | IC50 (U937 cells; [5]) [nM] | IC50 (RIPK1) [nM] |
| --- | --- | --- | --- | --- | --- | --- |
| CN1C(=O)[C@@H](NC(=O)c2cc(Oc3ccccc3)ccn2)COc2ccc(C#CC(C)(C)C)cc21 [II-25, (S)—N-(7-(3,3-dimethylbut-1-yn-1-yl)-5-methyl-4-oxo-2,3,4,5-tetrahydrobenzo[b][1,4]oxazepin-3-yl)-4-phenoxypicolinamide] | 226 |  |  | 202 | 2.4 |  |
| C=C(C)C#Cc1ccc2c(c1)N(C)C(=O)[C@@H](NC(=O)c1n[nH]c(Cc3ccccc3)n1)CO2 [Compound I-59, (S)-5-benzyl-N-(5-methyl-7-(3-methylbut-3-en-1-yn-1-yl)-4-oxo-2,3,4,5-tetrahydrobenzo[b][1,4]oxazepin-3-yl)-1H-1,2,4-triazole-3-carboxamide] | 57.9 | 0.7 | 1.9 |  |  |  |
| CN1C(=O)[C@@H](NC(=O)n2cc(Cc3ccccc3)cn2)COc2ccc(C#CC(C)(C)C)cc21 [Compound I-212, (S)-4-Benzyl-N-(7-(3,3-dimethylbut-1-yn-1-yl)-5-methyl-4-oxo-2,3,4,5-tetrahydrobenzo[b][1,4]oxazepin-3-yl)-1H-pyrazole-1-carboxamide] | 154 | 267 | 4.3 |  |  |  |
| CN1C(=O)[C@@H](NC(=O)c2cc(Oc3ccccc3)ccn2)COc2ccc(C#CC(C)(C)N3CCOCC3)cc21 [Compound I-206, (S)—N-(5-Methyl-7-(3-methyl-3-morpholinobut-1-yn-1-yl)-4-oxo-2,3,4,5-tetrahydrobenzo[b][1,4]oxazepin-3-yl)-4-phenoxypicolinamide] |  | 41.5 | 0.6 |  |  | 55.6 |
| Cc1cc(Oc2ccccc2)cc(C(=O)N[C@H]2COc3ccc(C#CC(C)(C)O)cc3N(C)C2=O)n1 [Compound I-119, (S)—N-(7-(3-hydroxy-3-methylbut-1-yn-1-yl)-5-methyl-4-oxo-2,3,4,5-tetrahydrobenzo[b][1,4]oxazepin-3-yl)-6-methyl-4-phenoxypicolinamide] | 59.8 | 4050 | 14.6 |  |  |  |
| CN1C(=O)[C@@H](NC(=O)n2cc(Cc3ccc(F)cc3)cn2)COc2ccc(C#CC3(O)CC4(CCC4)C3)cc21 [Compound I-224, (S)-4-(4-Fluorobenzyl)-N-(7-((2-hydroxyspiro[3.3]heptan-2-yl)ethynyl)-5-methyl-4-oxo-2,3,4,5-tetrahydrobenzo[b][1,4]oxazepin-3-yl)-1H-pyrazole-1-carboxamide] | 312 | 220 | 1.5 |  |  |  |
| CC(=O)O[C@@H](C(=O)O)[C@@H](OC(C)=O)C(=O)OCC(C)(C)C#Cc1ccc2c(c1)N(C)C(=O)[C@@H](NC(=O)c1cc(Oc3ccccc3)ccn1)CO2 [Compound I-145, (2R,3R)-2,3-diacetoxy-4-((2,2-dimethyl-4-((S)-5-methyl-4-oxo-3-(4-phenoxypicolinamido)-2,3,4,5-tetrahydrobenzo[b][1,4]oxazepin-7-yl)but-3-yn-1-yl)oxy)-4-oxobutanoic acid] | 27.5 | 3050 | 8.6 |  |  |  |
| CN1C(=O)[C@@H](NC(=O)c2cc(Oc3ccccc3)ccn2)COc2ccc(CCC(N)=O)cc21 [II-24, (S)—N-(7-(3-amino-3-oxopropyl)-5-methyl-4-oxo-2,3,4,5-tetrahydrobenzo[b][1,4]oxazepin-3-yl)-4-phenoxypicolinamide] | 56.3 |  |  | 7910 | 16.6 |  |
| CN1C(=O)[C@@H](NC(=O)n2cc(Cc3ccc(F)cc3F)cn2)COc2ccc(Br)cc21 [Compound I-237, (S)—N-(7-Bromo-5-methyl-4-oxo-2,3,4,5-tetrahydrobenzo[b][1,4]oxazepin-3-yl)-4-(2,4-difluorobenzyl)-1H-pyrazole-1-carboxamide] |  | 15500 | 135 |  |  | 43.1 |
| CN1C(=O)[C@@H](NC(=O)c2n[nH]c(Cc3ccc(F)cc3F)n2)COc2ccc(CCC(=O)N3CCCC3)cc21 [Compound I-34, (S)-5-(2,4-difluorobenzyl)-N-(5-methyl-4-oxo-7-(3-oxo-3-(pyrrolidin-1-yl)propyl)-2,3,4,5-tetrahydrobenzo[b][1,4]oxazepin-3-yl)-1H-1,2,4-triazole-3-carboxamide] | 49.2 | 9590 | 22.2 |  |  |  |
| CN1C(=O)[C@@H](NC(=O)c2n[nH]c(Cc3c(Cl)cccc3Cl)n2)COc2ccc(C#CC(C)(C)O)cc21 [Compound I-65, (S)-5-(2,6-dichlorobenzyl)-N-(7-(3-hydroxy-3-methylbut-1-yn-1-yl)-5-methyl-4-oxo-2,3,4,5-tetrahydrobenzo[b][1,4]oxazepin-3-yl)-1H-1,2,4-triazole-3-carboxamide] | 63.9 | 41.5 | 42 |  |  |  |

Continued by falling IC50 (RIPK1; [1]), values first:

| IC50 (RIPK1; [1]) [nM] | SMILES | IC50 (L929 cells; [2]) [nM] | IC50 (U937 cells; [3]) [nM] | IC50 (L929 cells; [4]) [nM] | IC50 (U937 cells; [5]) [nM] | IC50 (RIPK1) [nM] |
| --- | --- | --- | --- | --- | --- | --- |
| 41.5 | CN1C(=O)[C@@H](NC(=O)c2ncn(Cc3ccccc3)n2)COc2cc(CN3CCn4nc(C(F)(F)F)nc4C3)ccc21 [Compound I-67, (S)-1-benzyl-N-(5-methyl-4-oxo-8-((2-(trifluoromethyl)-5,6-dihydro-[1,2,4]triazolo[1,5-a]pyrazin-7(8H)-yl)methyl)-2,3,4,5-tetrahydrobenzo[b][1,4]oxazepin-3-yl)-1H-1,2,4-triazole-3-carboxamide] | 8.5 | 15.2 |  |  |  |
| 35.2 | CN1C(=O)[C@@H](NC(=O)n2cc(Cc3ccccc3)cn2)COc2ccc(C#CC(C)(C)O)cc21 [Compound I-213, (S)-4-Benzyl-N-(7-(3-hydroxy-3-methylbut-1-yn-1-yl)-5-methyl-4-oxo-2,3,4,5-tetrahydrobenzo[b][1,4]oxazepin-3-yl)-1H-pyrazole-1-carboxamide] | 45.5 | 1 |  |  |  |
| 35.2 | CN1C(=O)[C@@H](NC(=O)c2n[nH]c(Cc3ccccc3)n2)COc2ccc(/C=C/C(=O)NC3CC3)cc21 [Compound I-23, (S,E)-5-benzyl-N-(7-(3-(cyclopropylamino)-3-oxoprop-1-en-1-yl)-5-methyl-4-oxo-2,3,4,5-tetrahydrobenzo[b][1,4]oxazepin-3-yl)-1H-1,2,4-triazole-3-carboxamide] | 14500 | 6.7 |  |  |  |
| 32.7 | CN1C(=O)[C@@H](NC(=O)c2ccn(Cc3ccccc3)n2)COc2ccc(C#CC(C)(C)O)cc21 [Compound I-77, (S)-1-benzyl-N-(7-(3-hydroxy-3-methylbut-1-yn-1-yl)-5-methyl-4-oxo-2,3,4,5-tetrahydrobenzo[b][1,4]oxazepin-3-yl)-1H-pyrazole-3-carboxamide] | 0.3 | 2.8 |  |  |  |
| 27.3 | CN1C(=O)[C@@H](NC(=O)c2cc(OC3CCCC3)ccn2)COc2ccc(C#CC(C)(C)O)cc21 [Compound I-156, (S)-4-(cyclopentyloxy)-N-(7-(3-hydroxy-3-methylbut-1-yn-1-yl)-5-methyl-4-oxo-2,3,4,5-tetrahydrobenzo[b][1,4]oxazepin-3-yl)picolinamide] | 10300 | 55.4 |  |  |  |
| 25.3 | CC(C)[C@H](N)C(=O)OC1(C#Cc2ccc3c(c2)N(C)C(=O)[C@@H](NC(=O)c2cc(Oc4ccccc4)ccn2)CO3)COC1 [Compound I-160, 3-(((S)-5-methyl-4-oxo-3-(4-phenoxypicolinamido)-2,3,4,5-tetrahydrobenzo[b][1,4]oxazepin-7-yl)ethynyl)oxetan-3-yl L-valinate] | 44.2 | 0.9 |  |  |  |
| 24.5 | CN1C(=O)[C@@H](NC(=O)n2cc(Cc3ccc(F)cc3)cn2)COc2ccc(C#CC(C)(C)O)cc21 [Compound I-218, (S)-4-(4-fluorobenzyl)-N-(7-(3-hydroxy-3-methylbut-1-yn-1-yl)-5-methyl-4-oxo-2,3,4,5-tetrahydrobenzo[b][1,4]oxazepin-3-yl)-1H-pyrazole-1-carboxamide] | 75.8 | 2.6 |  |  |  |
| 23.4 | CN1C(=O)[C@@H](NC(=O)c2cc(Oc3ccccc3)ccn2)COc2ccc(C#CCN3CCCC3)cc21 [Compound I-116, (S)—N-(5-methyl-4-oxo-7-(3-(pyrolidin-1-yl)prop-1-yn-1-yl)-2,3,4,5-tetrahydrobenzo[b][1,4]oxazepin-3-yl)-4-phenoxypicolinamide] | 136 | 0.7 |  |  |  |
| 17.2 | CN1C(=O)[C@@H](NC(=O)c2cc(Oc3ccccc3)ccn2)COc2ccc(C#CC3(O)C[S+]([O-])C3)cc21 (stereo partly drawn) [Compound I-208, (S)—N-(7-((3-Hydroxy-1-oxidothietan-3-yl)ethynyl)-5-methyl-4-oxo-2,3,4,5-tetrahydrobenzo[b][1,4]oxazepin-3-yl)-4-phenoxypicolinamide] | 97.5 | 0.6 |  |  |  |
| 11 | CN1C(=O)[C@@H](NC(=O)c2ncn(Cc3ccccc3)n2)COc2ccc(C#CC3(O)COC3)cc21 [Compound I-58, (S)-1-benzyl-N-(7-((3-hydroxyoxetan-3-yl)ethynyl)-5-methyl-4-oxo-2,3,4,5-tetrahydrobenzo[b][1,4]oxazepin-3-yl)-1H-1,2,4-triazole-3-carboxamide] | 0.2 | 0.8 |  |  |  |
